The values below are quoted from earlier work in patent publication US20080102106A1, “Wound Healing Composition Comprising Substances From Diptera Larvae” (ALPHA-BIOCARE GMBH, priority 2005, published 2008).

Structures are written as SMILES.

For the data set the following is noted: many cases of use in humans, dermatological studies.

Consider `NC(=O)NC1NC(=O)NC1=O` (stereo not drawn) [allantoin], for which the wound healing effect result is “do not have any wound healing effect”.

Turning to `N` [ammonium], the wound healing effect entry is listed as “do not have any wound healing effect”.

Turning to `NC(N)=O` [urea], the wound healing effect result was “do not have any wound healing effect”.
